# From patent publication US8981111B2 (priority 2008, dated 2015)
# Assay: log P (HPLC/MS data of the preparation examples)
# Settings: HCOOH
row,Compound,log P(HCOOH)
1,N-(6-{[({(3-bromo-4-methoxyphenyl)[3-chloro-5-(trifluoromethyl)pyridin-2-yl]methylene}amino)oxy]methyl}pyridin-2-yl)-3-methylbutanamide [Example 444],5.03
2,N-{2-[({[(1-methyl-1H-imidazol-2-yl)(phenyl)methylene]amino}-oxy)methyl]pyrimidin-4-yl}cyclopropanecarboxamide [Example 193],1.50
3,pentyl{2-[({[(1-methyl-1H-imidazol-2-yl)(phenyl)methylene]amino}oxy)-methyl]pyrimidin-4-yl}carbamate [Example 61],2.28

# Same assay, conditions: HCOOH (formic acid)
row,Compound,chromatographic logP
1,"Cn1cncc1C(=NOCc1cccc(N)n1)c1ccsc1 [Example 493, 6-[({[(1-methyl-1H-imidazol-5-yl)(3-thienyl)methylene]amino}oxy)methyl]pyridin-2-amine]",0.39
2,"Cn1cncc1C(=NOCc1cccc(N2C(=O)c3ccccc3C2=O)n1)c1cccs1 [Example 494, 2-{6-[({[(1-methyl-1H-imidazol-5-yl)(2-thienyl)methylene]amino}-oxy)methyl]pyridin-2-yl}-1H-isoindole-1,3(2H)-dione]",1.66
3,"Cn1cncc1C(=NOCc1csc(N)n1)c1cccs1 [Example 495, 4-[({[(1-methyl-1H-imidazol-5-yl)(2-thienyl)methylene]amino}oxy)methyl]-1,3-thiazol-2-amine]",0.22
4,"Cn1cncc1C(=NOCc1csc(N)n1)c1ccsc1 [Example 496, 4-[({[(1-methyl-1H-imidazol-5-yl)(3-thienyl)methylene]amino}oxy)methyl]-1,3-thiazol-2-amine]",0.45
5,Cn1ccnc1C(=NO)c1ccccc1 [N-hydroxy-1-(1-methyl-1H-imidazol-2-yl)-1-phenylmethanimine],0.24
6,Cn1cncc1C(=NO)c1cccs1 [N-hydroxy-1-(1-methyl-1H-imidazol-5-yl)-1-(2-thienyl)methanimine],0.45
7,Cn1cncc1C(=NO)c1ccsc1 [N-hydroxy-1-(1-methyl-1H-imidazol-5-yl)-1-(3-thienyl)methanimine],0.21
8,Cn1cncc1C(=NO)c1ccccc1 [N-hydroxy-1-(1-methyl-1H-imidazol-5-yl)-1-phenylmethanimine],0.41
9,"Cc1nocc1C(=NO)c1cccs1 [N-hydroxy-1-(3-methyl-1,2-oxazol-4-yl)-1-(2-thienyl)methanimine]",1.75
10,CON(C)C(=O)c1cccs1 [N-methoxy-N-methylthiophene-2-carboxamide],1.44
11,CON(C)C(=O)c1ccsc1 [N-methoxy-N-methylthiophene-3-carboxamide],1.3

# Same assay, conditions: HPLC (LC-MS) method [b]: pH 2.7, 0.1% formic acid in water and acetonitrile, linear gradient 10% to 95% acetonitrile; EEC directive 79/831 Annex V.A8
row,Compound,log p
1,Cn1cncc1C(=NOCc1cccc(N)n1)c1cccs1 [Example 423],0.08^[b]
2,CCCCCOC(=O)Nc1cccc(CON=C(c2ccsc2)c2cncn2C)n1 [Example 425],2.82^[b]
3,CCCCCC(=O)Nc1nc(CON=C(c2ccsc2)c2cncn2C)cs1 [Example 428],1.99^[b]
4,CCCCCC(=O)Nc1nc(CON=C(c2cccs2)c2cncn2C)cs1 [Example 429],1.93^[b]
5,Cn1cncc1C(=NOCc1cccc(NC(=O)COc2ccccc2)n1)c1cccs1 [Example 431],1.94^[b]
6,CC(C)C(=O)Nc1nc(CON=C(c2cccs2)c2cncn2C)cs1 [Example 433],1.53^[b]
7,Cn1cncc1C(=NOCc1csc(NC(=O)COc2ccccc2)n1)c1cccs1 [Example 434],1.87^[b]
8,Cn1cncc1C(=NOCc1cccc(NC(=O)COc2ccccc2)n1)c1ccsc1 [Example 435],1.96^[b]
9,Cn1cncc1C(=NOCc1cccc(NC(=O)C(C)(C)C)n1)c1ccsc1 [Example 436],1.7^[b]
10,CCCC(=O)Nc1cccc(CON=C(c2ccsc2)c2cncn2C)n1 [Example 437],1.52^[b]
11,CCCCCCC(=O)Nc1cccc(CON=C(c2ccsc2)c2cncn2C)n1 [Example 438],2.25^[b]
12,CC(C)C(=O)Nc1cccc(CON=C(c2ccsc2)c2cncn2C)n1 [Example 439],1.5^[b]
13,CCCCC(=O)Nc1cccc(CON=C(c2ccsc2)c2cncn2C)n1 [Example 440],1.75^[b]
14,CCCCCCCCCC(=O)Nc1cccc(CON=C(c2ccsc2)c2cncn2C)n1 [Example 441],3.02^[b]
15,CC(C)CC(=O)Nc1cccc(CON=C(c2ccsc2)c2cncn2C)n1 [Example 442],1.7^[b]
16,Cn1cncc1C(=NOCc1cccc(NC(=O)C(C)(C)C)n1)c1cccs1 [Example 443],1.7^[b]
17,CCCC(=O)Nc1cccc(CON=C(c2cccs2)c2cncn2C)n1 [Example 445],1.5^[b]
18,CCCCCCCCCC(=O)Nc1cccc(CON=C(c2cccs2)c2cncn2C)n1 [Example 448],2.98^[b]
19,Cn1cncc1C(=NOCc1csc(NC(=O)C(C)(C)C)n1)c1cccs1 [Example 449],1.67^[b]
20,CC(C)CC(=O)Nc1nc(CON=C(c2cccs2)c2cncn2C)cs1 [Example 450],1.66^[b]
21,CCCC(=O)Nc1nc(CON=C(c2cccs2)c2cncn2C)cs1 [Example 451],1.47^[b]
22,CCCCCCC(=O)Nc1nc(CON=C(c2cccs2)c2cncn2C)cs1 [Example 452],2.14^[b]
23,CCCCC(=O)Nc1nc(CON=C(c2cccs2)c2cncn2C)cs1 [Example 453],1.7^[b]
24,CCCCCCCCCC(=O)Nc1nc(CON=C(c2cccs2)c2cncn2C)cs1 [Example 454],2.86^[b]
25,CCC(C(=O)Nc1cccc(CON=C(c2cccs2)c2cncn2C)n1)c1ccccc1 (centres unmarked) [Example 455],2.2^[b]
26,Cn1cccc1C(=NOCc1cccc(N2C(=O)c3ccccc3C2=O)n1)c1ccc(Cl)nc1 [Example 463],3.78^[b]
27,Cn1cccc1C(=NOCc1cccc(N)n1)c1ccc(Cl)nc1 [Example 464],1.72^[b]

row,Compound,log p
1,Cn1ncnc1C(=NOCc1cccc(N2C(=O)c3ccccc3C2=O)n1)c1ncc(C(F)(F)F)cc1Cl [Example 465],3.15^[b]
2,Cn1ncnc1C(=NOCc1cccc(N)n1)c1ncc(C(F)(F)F)cc1Cl [Example 466],1.3^[b]
3,Cn1ncnc1C(=NOCc1cccc(NC(=O)Cc2ccccc2)n1)c1ncc(C(F)(F)F)cc1Cl [Example 467],3.46^[b]
4,CCCCCC(=O)Nc1cccc(CON=C(c2ncc(C(F)(F)F)cc2Cl)c2ncnn2C)n1 [Example 468],3.85^[b]
5,CCCCCOC(=O)Nc1cccc(CON=C(c2ncc(C(F)(F)F)cc2Cl)c2ncnn2C)n1 [Example 469],4.41^[b]
6,Cn1ncnc1C(=NOCc1cccc(NC(=O)C(C)(C)C)n1)c1ncc(C(F)(F)F)cc1Cl [Example 470],3.44^[b]
7,Cn1ncnc1C(=NOCc1cccc(NC(=O)CCc2ccccc2)n1)c1ncc(C(F)(F)F)cc1Cl [Example 471],3.73^[b]
8,Cn1ncnc1C(=NOCc1nccc(N)n1)c1ncc(C(F)(F)F)cc1Cl [Example 472],1.2^[b]
9,Cn1ncnc1C(=NOCc1csc(N)n1)c1ncc(C(F)(F)F)cc1Cl [Example 473],1.56^[b]
10,CCCCCC(=O)Nc1ccnc(CON=C(c2ncc(C(F)(F)F)cc2Cl)c2ncnn2C)n1 [Example 474],3.51^[b]
11,CCCCCOC(=O)Nc1ccnc(CON=C(c2ncc(C(F)(F)F)cc2Cl)c2ncnn2C)n1 [Example 475],3.8^[b]
12,Cn1ncnc1C(=NOCc1nccc(NC(=O)Cc2ccccc2)n1)c1ncc(C(F)(F)F)cc1Cl [Example 476],3.13^[b]
13,Cn1ncnc1C(=NOCc1nccc(NC(=O)CCc2ccccc2)n1)c1ncc(C(F)(F)F)cc1Cl [Example 477],3.39^[b]
14,CC(C)CC(=O)Nc1ccnc(CON=C(c2ncc(C(F)(F)F)cc2Cl)c2ncnn2C)n1 [Example 478],3.06^[b]
15,CCCCCC(=O)Nc1nc(CON=C(c2ncc(C(F)(F)F)cc2Cl)c2ncnn2C)cs1 [Example 479],3.6^[b]
16,CCCCCOC(=O)Nc1nc(CON=C(c2ncc(C(F)(F)F)cc2Cl)c2ncnn2C)cs1 [Example 480],3.94^[b]
17,Cn1ncnc1C(=NOCc1csc(NC(=O)C(C)(C)C)n1)c1ncc(C(F)(F)F)cc1Cl [Example 481],3.27^[b]
18,Cn1ncnc1C(=NOCc1csc(NC(=O)Cc2ccccc2)n1)c1ncc(C(F)(F)F)cc1Cl [Example 482],3.27^[b]
19,Cn1ncnc1C(=NOCc1csc(NC(=O)CCc2ccccc2)n1)c1ncc(C(F)(F)F)cc1Cl [Example 483],3.51^[b]
20,CC(C)CC(=O)Nc1nc(CON=C(c2ncc(C(F)(F)F)cc2Cl)c2ncnn2C)cs1 [Example 484],3.19^[b]
21,Cc1cccnc1C(=NOCc1csc(N)n1)c1cc(C(F)(F)F)ccn1 [Example 486],1.57^[b]
22,Cc1cccnc1C(=NOCc1csc(NC(=O)C(C)(C)C)n1)c1cc(C(F)(F)F)ccn1 [Example 487],3.44^[b]
23,Cc1cccnc1C(=NOCc1csc(NC(=O)CC(C)C)n1)c1cc(C(F)(F)F)ccn1 [Example 488],3.31^[b]
24,CCCCCOC(=O)Nc1nc(CON=C(c2cc(C(F)(F)F)ccn2)c2ncccc2C)cs1 [Example 489],4.13^[b]
25,CCCCCC(=O)Nc1nc(CON=C(c2cc(C(F)(F)F)ccn2)c2ncccc2C)cs1 [Example 490],3.76^[b]
26,N-(6-{[({(3-bromo-4-methoxyphenyl)[3-chloro-5-(trifluoromethyl)pyridin-2-yl]methylene}amino)oxy]methyl}pyridin-2-yl)-3-methylbutanamide [Example 444],1.69^[b]

# Same assay, conditions: HPLC method [a]: pH 2.3, 0.1% phosphoric acid and acetonitrile as eluent; EEC directive 79/831 Annex V.A8
row,Compound,log p
1,COC(=O)c1ccc(C(F)(F)F)nc1CON=C(c1ccccn1)c1ccccn1 [Example 485],2.48^[a]

# Same assay, conditions: LC-MS, method [b]: pH 2.7 with 0.1% formic acid in water and acetonitrile, linear gradient 10% to 95% acetonitrile
row,Compound,log p
1,N-(cyclopropylcarbonyl)-N-(2-{[({[2-(cyclopropylcarbonyl)-1-methyl-1H-imidazol-5-yl](phenyl)methylene}amino)oxy]methyl}pyrimidin-4-yl)cyclopropanecarboxamide [Example 312],2.22^[b]
2,pentyl{2-[({[(1-methyl-1H-imidazol-2-yl)(phenyl)methylene]amino}oxy)-methyl]pyrimidin-4-yl}carbamate [Example 61],1.92^[b]

# Same assay, conditions: method [b]: LC-MS at pH 2.7, 0.1% formic acid in water / acetonitrile, linear gradient 10% to 95% acetonitrile
row,Compound,log p
1,N-{2-[({[(1-methyl-1H-imidazol-2-yl)(phenyl)methylene]amino}-oxy)methyl]pyrimidin-4-yl}cyclopropanecarboxamide [Example 193],1.54^[b]
